Measurements published in patent US10201532B2, “Compounds and their use” (ALLECRA THERAPEUTICS GMBH, priority 2010, dated 2019).
Where “and” joins values, the source holds several entries; their conditions need not be identical. Identical values can stand only once. Like-named read-outs stand apart in the source and are kept apart here.

Legend:
[1] = system: KPC-3 expressing E. coli (J53 R6206); assay: microbe, parasite or virus in culture; format: cell-based, Escherichia coli; details: for MIC of Cefadroxil in combination with BLI / MIC of Cefalonium in combination with BLI / MIC of Cefquinome in combination with BLI / MIC of Ceftiofur in combination with BLI: BLI at 4 μg/mL, E. coli J53 R6206; for MIC: Escherichia coli, read-out: MIC of BLI alone
Experimental: The β-lactam compound was tested for in vitro antibacterial activities by the broth micro-dilution or agar dilution method as specified in documents published by Clinical and Laboratory Standards Institute (CLSI), USA (formerly NCCLS). Approved standard M7-A7, January 2006, CLSI, Wayne, Pa., USA and M100-S18, January 2008, CLSI, Wayne, Pa., USA.
In agar dilution method briefly, stock solutions of the cephalosporins for veterinary use (e.g. 2 mg/mL) was made in water, 0.1M phosphate buffers or appropriate solvents and the solution was serially two fold diluted. Compound-1 was dissolved in water and Tazobactam (comparator BLI) in 0.1M phosphate buffer, pH 6.0 to get a solution of 1 mg/mL. Cephalosporins were screened in a concentration range of 0.5-32 μg/mL. For combination, Tazobactam or the Compound-1 described herein were tested at a fixed concentration of 4 μg/mL along with the cephalosporins concentration ranging from 0.5 to 32 μg/mL. […] The compound of formula (I) and Tazobactam were also tested individually. The bacterial inoculum was prepared by picking 3 to 5 well isolated bacterial colonies with the same morphological appearance from an 18-24 h old culture and adjusting the turbidity of the saline suspension to 0.5 McFarland turbidity standard equivalent to a bacterial population of ˜1×10^8 CFU per mL of suspension. The suspension was diluted 1:10 in saline to get a bacterial population of ˜1×10^7 CFU/mL as inoculum. This bacterial inoculum was inoculated onto the prepared petri dishes by a multipoint inoculator with each inoculum spot containing ˜1×10^4 CFU of the bacterial strain. The inoculated petri dishes were incubated at 35° C. in an ambient atmosphere for 18-20 h.

[2] = system: KPC2 K. pneumoniae ATCC BAA 1705; assay: Mice systemic infection model; format: in vivo; details: Klebsiella pneumoniae
Experimental: Female Swiss Albino mice, weighing 18-22 g were used for all studies. For each dose group, 5 or 6 mice were included. Study protocols were reviewed and approved by Institutional Animal Ethical Committee, Orchid Research Laboratories Limited. Mice were housed in individually ventilated cages provided with food and water ad libitum, throughout the study period. From overnight culture in Brain-Heart Infusion agar medium, challenge inoculum with required bacterial density was prepared in normal saline containing Hog gastric mucin. In studies involved with doripenem, washed bacterial cells was used. Each mouse was infected […] inoculum by intra-peritoneal injection.
Infected mice were dosed sub-cutaneously, with drug preparations at three different time points post-infection.
Imipenem with BLI combinations: Increasing concentrations of Imipenem as single agent or in combination with fixed concentration of BLIs were used to dose infected mice, sub-cutaneously. In this experiment Imipenem was always administered along with cilastatin. Doripenem with BLI combinations: Increasing concentrations of doripenem as single agent or in combination with fixed concentration of BLIs were used to dose infected mice, sub-cutaneously.
Survival of the treated mice were monitored twice a day, up to 7 days post-infection. Efficacy dose 50 (ED50) was calculated by Reed and Muench method (Reed, L. J.; Muench, H. “A simple method of estimating fifty percent endpoints”. The American Journal of Hygiene, 1938, 27: 493-497.).

[3] = target: crude KPC-3 enzyme extract (UniProt Q9F663, H272Y, species not given); assay: β-Lactamase inhibitory assay with CENTA substrate; format: biochemical; details: also headed KPC2
Text: (§1) The Compound-1 was subjected to β-lactamase inhibitory assay to determine IC50 and to compare that with the comparator BLI agents as described elsewhere (Bebrone et. al., Antimicrob. Agents. Chemother, 2001, 45(6): 1868-1871; Jamieson et. al, Antimicrob. Agents. Chemother, 2003, 47(5): 1652-1657). Briefly, enzyme extracts from KPC-2 producing and KPC-3 expressing bacterial gram negative strains were used to study the β-lactamase inhibitory activity and determination of IC50 using CENTA as the substrate for β-lactamase.

[4] = target: T1, crude KPC-2 enzyme extract (Klebsiella pneumoniae, UniProt Q9F663); assay: β-Lactamase inhibitory assay with CENTA substrate; format: biochemical
T1 construct: enzyme extracts from KPC-2 producing and KPC-3 expressing bacterial gram negative strains were used; endogenous in cells; host or cells: KPC-2 producing gram-negative strain
Text: as §1

[5] = system: KPC2 K. pneumoniae ATCC BAA 1705; assay: Mice systemic infection model; format: in vivo; details: sub-cutaneous, printed as piperacillin:BLI dose
[6] = system: E. coli Ecoli233 (KPC3); assay: Synergistic broth micro-dilution MIC; format: cell-based, Escherichia coli
[7] = system: KPC/ESBL producing Enterobacteriaceae; assay: Double Disk Synergy Test (Methodology 1); format: cell-based, Klebsiella pneumoniae, Escherichia coli; details: Compound-1 60 μg disk at 7 & 10 mm from antibiotic disks; FIG. 1
Text: In this experiment, Compound-1 is used as a diagnostic reagent for the detection of β-lactamases belonging to the families KPC & ESBL (e.g., SHV18) producing Enterobacteriaceae. A simple set of absorbent paper disks impregnated with antibiotic on agar medium is used for the detection.
• 0.5 McFarland of the test organism was inoculated at 1:10 dilution on Muller • Hinton Agar plates • Test organisms: Klebsiella pneumoniae (K.p) ATCC BAA-1705, Klebsiella pneumoniae ATCC 700603, Escherichia coli (E.c) Ecoli233 • Carbapenem (e.g., Imipenem [IPM] 10 μg) and cephalosporin (e.g., Ceftazidime [CAZ] 30 μg) paper disks (7 mm) were placed on the inoculated agar plates • Compound-1 (60 μg) disk was placed at a distance of 7 & 10 mm from the carbapenem and cephalosporin disks. • The presence of expressed carbapenemases or ESBLs was measured as the expansion of Imipenem or Ceftazidime's inhibition zones due to synergy in the presence of Compound-1.

[8] = system: K. pneumoniae NCTC 13438 (KPC3); assay: Synergistic broth micro-dilution MIC; format: cell-based, Klebsiella pneumoniae; details: BLI at 4 μg/mL
[9] = system: P. mirabilis BAA-663 (TEM-89); assay: MIC of Piperacillin with inhibitor, ESBL isolates; format: cell-based
[10] = BAA1705, 168 h, read-out: ED50, single agent
[11] = BAA1705, BLI fixed at 64 mg/kg, mice, sub-cutaneous, with cilastatin, read-out: ED50 of Imipenem + BLI

| Compound | MIC of Cefadroxil in combination with BLI [1] [µg/mL] | MIC of Cefalonium in combination with BLI [1] [µg/mL] | MIC of Cefquinome in combination with BLI [1] [µg/mL] | MIC of Ceftiofur in combination with BLI [1] [µg/mL] | MIC [1] [µg/mL] | ED50 [2, 10] [mg/kg] | ED50 [2, 11] [mg/kg] | IC50 [3] [µM] | IC50 [4] [µM] | ED50 of Piperacillin:BLI at 1:1 ratio [5] | MIC of Imipenem in combination with BLI ([6]; BLI at 4 μg/mL) [µg/mL] | MIC of Imipenem in combination with BLI ([6]; BLI at 16 μg/mL) [µg/mL] | Synergy: increase of Imipenem or Ceftazidime zone adjacent to Compound-1 disk [7] | MIC of Imipenem in combination with BLI [8] [µg/mL] | MIC of Piperacillin with inhibitor ([9]; inhibitor at 1 μg/mL) [µg/mL] | MIC of Piperacillin with inhibitor ([9]; inhibitor at 2 μg/mL) [µg/mL] | MIC of Piperacillin with inhibitor ([9]; inhibitor at 4 μg/mL) [µg/mL] | ED50 of Piperacillin:BLI at 1:1 ratio ([5]; listed as tazobactam) [mg/kg] |
| --- | --- | --- | --- | --- | --- | --- | --- | --- | --- | --- | --- | --- | --- | --- | --- | --- | --- | --- |
| C[n+]1ccn(C[C@@]2(C)[C@H](C(=O)[O-])N3C(=O)C[C@H]3S2(=O)=O)n1 [Compound-1, 1-{[(2S,3S,5R)-2-Carboxy-3-methyl-4,4,7-trioxo-4-thia-1-azabicyclo[3.2.0]hept-3-yl]methyl}-3-methyl-1H-1,2,3-triazol-3-ium] | >32 | 4 | <0.5 | <0.5 | > 16 | > 64 | 2.2 | 10.7 | 190 | 50 mg/kg and 50:50 mg/kg | 4 | 1 | Synergy was observed | 32 | – | – | – | – |
| C[C@]1(Cn2ccnn2)[C@H](C(=O)O)N2C(=O)C[C@H]2S1(=O)=O [Tazobactam] | >32 | 32 | 8 | 2 | > 16 | > 200 | 4 | 71 | 980 | >200:>200 mg/kg | 8 | 8 | – | 64 | 8 | 8 | 4 | > 200 |
